From article PMC5688156, “The natural product carolacton inhibits folate-dependent C1 metabolism by targeting FolD/MTHFD” (Nature Communications, 2017)
Where “and” joins values, the source holds several entries; their conditions need not be identical. Equal values may be shown once.

Assays:
[1] = target: T1, hsMTHFD2 (Homo sapiens, UniProt P13995); test: hsMTHFD2 cyclohydrolase (CYH) enzyme assay; type: biochemical
T1 construct: His-tag (vector pHis-TEV) (cleaved yes); made in house; host or cells: E. coli BL21 (DE3)
T1 sequence (P13995 36-350): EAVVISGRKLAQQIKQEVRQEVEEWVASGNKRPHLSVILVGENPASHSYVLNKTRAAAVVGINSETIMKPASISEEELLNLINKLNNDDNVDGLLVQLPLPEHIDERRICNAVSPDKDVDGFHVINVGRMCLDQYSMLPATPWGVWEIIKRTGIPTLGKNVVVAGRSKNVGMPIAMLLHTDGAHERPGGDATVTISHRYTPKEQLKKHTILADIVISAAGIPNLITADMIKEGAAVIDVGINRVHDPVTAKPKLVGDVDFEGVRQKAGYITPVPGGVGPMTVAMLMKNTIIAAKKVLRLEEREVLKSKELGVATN
Description: (§1) (6R,S)-5,10-Methylene-5,6,7,8-tetrahydrofolic acid ((6R,S)-5,10-CH2-THF) calcium salt and (6R,S)-5,10-Methenyl-5,6,7,8-tetrahydrofolic acid ((6R,S)-5,10-CH=THF) chloride were purchased from Schircks Laboratories (Bauma, Switzerland) and used as substrates for FolD dehydrogenase and cyclohydrolase enzyme assays, respectively. Only the R-isomer, which accounts for 50% of (6R,S)-5,10-CH2-THF and (6R,S)-5,10-CH=THF, respectively, is used by the enzyme. (6R,S)-5,10-CH2-THF was dissolved in N2-spargeled basic buffer (50 mM Tris-HCl (pH 8.0), 100 mM β-mercaptoethanol) as described by Varshney et al.[25]. (6R,S)-5,10-CH=THF was dissolved in DMSO as a 100 mM stock solution.
(§2) Because FolD is a bifunctional enzyme, dehydrogenase and cyclohydrolase activities were determined for FolD enzyme kinetics, respectively. The dehydrogenase activity of FolD was assayed for its substrate 5,10-CH2-THF and cofactor NADP^+ (in the case of MTHFD2, NAD^+ was used as the cofactor) based on monitoring the formation of 5,10-CH=THF, while the cyclohydrolase activity of FolD was determined for its substrate 5,10-CH=THF by monitoring the hydrolysis of […]. The enzyme kinetics for the dehydrogenase activity of all FolDs except hsMTHFD1_DC were determined at 30 °C in 50 mM Tris-HCl (pH 7.5), 30 mM β-mercaptoethanol. The hsMTHFD1_DC dehydrogenase activity was measured in 25 mM MOPS (pH 7.3), 30 mM β-mercaptoethanol at 30 °C. […] To monitor the formation of 5,10-CH=THF, the absorbance of the reaction mixture was monitored at 350 nm in micro UV cuvettes (BRAND, Essex, Connecticut, USA). The concentration of 5,10-CH=THF produced in the reaction was determined using an extinction co-efficient of 0.0249 μM^−1 cm^−1. […] The consumption of 5,10-CH=THF was measured by recording the absorbance of the reactions at 355 nm using the TECAN Infinite 200 PRO equipped with a monochromator. […] The inhibition constants (K i) of carolacton on FolD were determined by measuring the apparent K m when adding certain amounts of carolacton to the enzyme reactions. […]

[2] = target: T2, ecFolD (Escherichia coli, UniProt P24186); test: ecFolD cyclohydrolase (CYH) enzyme assay; type: biochemical, E. coli
T2 construct: His-tag (TEV-cleavable, vector pHis-TEV); made in house; host or cells: E. coli BL21 (DE3)
Description: as §1, §2

SMILES: CO[C@H](CC(=O)O)[C@@H](C)C(=O)[C@H](C)/C=C(\C)[C@H]1OC(=O)[C@H](O)[C@H](O)/C=C/[C@H](C)CCC[C@@H]1C [carolacton]
- IC50 ([1]; 5 nM enzyme, read-out: IC50, carolacton inhibition on CYH activity): 85.7 nM
- IC80 ([1]; 5 nM enzyme, read-out: IC80, carolacton inhibition on CYH activity): 202 nM
- Ki ([1]; vs 5,10-CH=THF, read-out: Ki (5,10-CH=THF), carolacton inhibition on CYH activity): 12.7 nM
- IC50 [2]: 49.8 nM
- Ki ([2]; Ki (5,10-CH=THF), carolacton inhibition on CYH activity, competitive vs substrate 5,10-CH=THF, from apparent KM): 32 nM and 31.6 nM
- IC80 ([2]; read-out: IC80, carolacton inhibition on CYH activity): 180 nM
